Experimental data from PubChem BioAssay (NCI).
Values joined by “and” are separate entries in the source; they are usually repeats but may differ in a detail not shown here. Equal entries are not always repeated.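 Dose response: 5 concentrations. Exposure: 48 h. Format: 96-well plates. Endpoint: linear interpolation; highest concentration if not reached. GI50 is the concentration that inhibits growth by half. TGI: concentration producing complete growth inhibition.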

How the values were obtained:
Experiment in all cases: NCI anticancer screen, dose series, 48 h
CCRF-CEM leukemia = tested on: CCRF-CEM leukemia
DU-145 prostate = tested on: DU-145 prostate
HCT-15 colon = tested on: HCT-15 colon
HS 578T breast = tested on: HS 578T breast
KM12 colon = tested on: KM12 colon
MDA-MB-231 breast = tested on: MDA-MB-231 breast
NCI-H226 lung = tested on: NCI-H226 lung
OVCAR-5 ovarian = tested on: OVCAR-5 ovarian
SK-MEL-28 melanoma = tested on: SK-MEL-28 melanoma
UACC-257 melanoma = tested on: UACC-257 melanoma

OC(C1CO1)C(O)C1CO1 (configuration not stated)
GI50 (CCRF-CEM leukemia): 1.53 µM | TGI (CCRF-CEM leukemia): 120 µM and 392 µM | GI50 (DU-145 prostate): 6.7 µM | TGI (DU-145 prostate): 109 µM and 154 µM | TGI (HCT-15 colon): 131 µM and 406 µM | GI50 (HS 578T breast): 39.3 µM | TGI (HS 578T breast): 150 µM and 392 µM | TGI (KM12 colon): 112 µM and 254 µM | GI50 (MDA-MB-231 breast): 63 µM | TGI (MDA-MB-231 breast): 69.6 µM and 377 µM | GI50 (NCI-H226 lung): 47.7 µM and 122 µM | TGI (NCI-H226 lung): 136 µM and 412 µM | GI50 (OVCAR-5 ovarian): 93.9 µM | TGI (OVCAR-5 ovarian): 137 µM and 237 µM | TGI (SK-MEL-28 melanoma): 144 µM and 239 µM | GI50 (UACC-257 melanoma): 56.1 µM | TGI (UACC-257 melanoma): 141 µM and 244 µM
